Measurements from PMC9232501, “Results of the phase I CCTG IND.231 trial of CX-5461 in patients with advanced solid tumors enriched for DNA-repair deficiencies” (Nature Communications, 2022).
Several values for one entry are separate records, joined by “and”; a condition that tells them apart may be missing. Equal values may be shown once.

How the values were obtained:
[1] = tested on: patients with hematologic malignancies; parameters: method as in PMID 31092402; details: cited from earlier work
XPA knockout HAP1 cells = assay: HAP1 XPA knockout cytotoxicity (WST-1 assay) with and without UVA; type: cell-based; details: for WST-1 raw signal (Figure 5h): replicates
Protocol: (§1) Fig. 5 Comparison of G4 ligand photosensitization. […] Vertical axis, fractional survival, horizontal axis log10 drug concentration (M) (f) Representative images of CPD immunofluorescent staining under UV and drug treatment conditions for U2OS cells, quantified from biological duplicates in (g) (h) Scale bar = 100um. U2OS cells were treated with drug or vehicle control, then immediately irradiated with UVA 125 mJ/cm^2; and fixed 1 h later for immunofluorescence staining with CPD antibody. g Distribution of mean intensity of CPD level per cell (total n = in labels), with two biological repeats per condition. Vertical axis, mean CPD intensity per cell, horizontal axis, conditions (h) WT or KO XPA HAP1 cells assayed for cytotoxicity. Vertical axis, fractional survival (WST-1 assay). The horizontal axis, log10 drug concentration (M). Error bars = standard deviation of the mean. Three biological repeats per condition.
(§2) Human epidermal keratinocytes (HEKa) cells were sourced from Thermo Fisher Scientific, and were grown in EpiLife™ Medium with HKGS. HAP WT and XPA knockout cell lines (Horizon Discovery) were cultured in IMDM, 10% FCS. Human HCT116 cells, U2OS cells (ATCC) were grown in McCoy’s 5 A medium with 10% FBS and L-glutamine. All cell lines are mycoplasma free and have been authenticated by STR or SNP profiling. CX-5461 was provided by Senhwa Biosciences, Inc. PDS is from Sigma-Aldrich, BRACO-19 from Alfa Chemistry, PhENDC3 is from Sigma-Aldrich, γ -H2AX antibody from Abcam (1:1000 for IF) and CPD antibody (1:1500) from Cosmo Bio Ltd. (Catalog number: CAC-NM-DAD-001). The WST-1 assay was performed as previously described, γ H2AX foci staining was performed as previously described. Immunofluorescence staining of CPD was performed according to the protocol from the manufacturer (Cosmo Bio Ltd).

HCT116 cells = assay: HCT116 cytotoxicity (WST-1 assay) with and without UVA radiation; type: cell-based, Human
Protocol: as §1, §2

[2] = tested on: BRCA2 and BRCA1-deficient tumor models; details: in vitro and in vivo, independently of RNA polymerase 1 inhibition; cited from earlier work

In the case of `Cc1cnc(CNC(=O)c2c(=O)c3ccc(N4CCCN(C)CC4)nc3n3c2sc2ccccc23)cn1` [CX-5461], the “dose-limiting toxicities (kind)” value [1] is listed as “palmar–plantar erythrodysesthesia and phototoxicity”, the “dose recommended for further study” value ([1]; intravenously once every 3 weeks (q3w)) is listed as 170 mg/m^2 and the “WST-1 raw signal (Figure 5h)” value (XPA knockout HAP1 cells; conc 1.00E-07, 125 mJ/cm2 XPA) is listed as 0.1279 and 0.1288. The “WST-1 raw signal (Figure 5h)” value (XPA knockout HAP1 cells; conc 1.00E-07, XPA No UV) was 0.1234 and 0.1195, the “WST-1 raw signal (Figure 5h)” value (XPA knockout HAP1 cells; conc 1.25E-08, 125 mJ/cm2 XPA) was 0.1288 and 0.1302 and the “WST-1 raw signal (Figure 5h)” value (XPA knockout HAP1 cells; conc 1.25E-08, XPA No UV) was 3.2483 and 2.9851. The “WST-1 raw signal (Figure 5h)” value (XPA knockout HAP1 cells; conc 1.56E-09, 125 mJ/cm2 XPA) was 0.1344 and 0.1335, the “WST-1 raw signal (Figure 5h)” value (XPA knockout HAP1 cells; conc 1.56E-09, XPA No UV) was 3.436 and 3.4453 and the “WST-1 raw signal (Figure 5h)” value (XPA knockout HAP1 cells; conc 2.00E-07, 125 mJ/cm2 XPA) was 0.0895 and 0.1298. For the same compound, the “WST-1 raw signal (Figure 5h)” value (XPA knockout HAP1 cells; conc 2.00E-07, XPA No UV) was 0.1255 and 0.1238, the “WST-1 raw signal (Figure 5h)” value (XPA knockout HAP1 cells; conc 2.50E-08, 125 mJ/cm2 XPA) was 0.1291 and 0.1284 and the “WST-1 raw signal (Figure 5h)” value (XPA knockout HAP1 cells; conc 2.50E-08, XPA No UV) was 0.4389 and 0.6241. For the same compound, the “WST-1 raw signal (Figure 5h)” value (XPA knockout HAP1 cells; conc 3.13E-09, 125 mJ/cm2 XPA) was 0.128 and 0.1287, the “WST-1 raw signal (Figure 5h)” value (XPA knockout HAP1 cells; conc 3.13E-09, XPA No UV) was 3.4207 and 3.5618 and the “WST-1 raw signal (Figure 5h)” value (XPA knockout HAP1 cells; conc 3.91E-10, 125 mJ/cm2 XPA) was 2.554 and 2.4891. The “WST-1 raw signal (Figure 5h)” value (XPA knockout HAP1 cells; conc 3.91E-10, XPA No UV) was 3.4121 and 3.399, the “WST-1 raw signal (Figure 5h)” value (XPA knockout HAP1 cells; conc 5.00E-08, 125 mJ/cm2 XPA) was 0.1275 and 0.1296 and the “WST-1 raw signal (Figure 5h)” value (XPA knockout HAP1 cells; conc 5.00E-08, XPA No UV) was 0.1252 and 0.1218. For the same compound, the “WST-1 raw signal (Figure 5h)” value (XPA knockout HAP1 cells; conc 6.25E-09, 125 mJ/cm2 XPA) was 0.1286 and 0.1316, the “WST-1 raw signal (Figure 5h)” value (XPA knockout HAP1 cells; conc 6.25E-09, XPA No UV) was 3.488 and 3.4015 and the “WST-1 raw signal (Figure 5h)” value (XPA knockout HAP1 cells; conc 7.81E-10, 125 mJ/cm2 XPA) was 0.5854 and 0.7406. The “WST-1 raw signal (Figure 5h)” value (XPA knockout HAP1 cells; conc 7.81E-10, XPA No UV) was 3.4022 and 3.4603, the “effect of UVA radiation on cytotoxicity” value (XPA knockout HAP1 cells; with UVA) was “to a greater extent in XPA knockout cells” and the “WST-1 reading (source data of fractional survival)” value (HCT116 cells; 1.00E-07 M, 5mJ/cm2 UV) was 0.1726 and 0.1634. For the same compound, the “WST-1 reading (source data of fractional survival)” value (HCT116 cells; 1.00E-07 M, 125 mJ/cm2 UV) was 0.1356 and 0.1403, the “WST-1 reading (source data of fractional survival)” value (HCT116 cells; 1.00E-07 M, no UV) was 0.3459 and 0.3709 and the “WST-1 reading (source data of fractional survival)” value (HCT116 cells; 1.25E-08 M, 5mJ/cm2 UV) was 1.8446 and 1.2623. The “WST-1 reading (source data of fractional survival)” value (HCT116 cells; 1.25E-08 M, 125 mJ/cm2 UV) was 0.2266 and 0.2178, the “WST-1 reading (source data of fractional survival)” value (HCT116 cells; 1.25E-08 M, no UV) was 2.7124 and 3.0988 and the “WST-1 reading (source data of fractional survival)” value (HCT116 cells; 1.56E-09 M, 5mJ/cm2 UV) was 3.1522 and 3.1435. For the same compound, the “WST-1 reading (source data of fractional survival)” value (HCT116 cells; 1.56E-09 M, 125 mJ/cm2 UV) was 1.3637 and 1.8262, the “WST-1 reading (source data of fractional survival)” value (HCT116 cells; 1.56E-09 M, no UV) was 3.1762 and 3.2869 and the “WST-1 reading (source data of fractional survival)” value (HCT116 cells; 2.00E-07 M, 5mJ/cm2 UV) was 0.1417 and 0.1383. The “WST-1 reading (source data of fractional survival)” value (HCT116 cells; 2.00E-07 M, 125 mJ/cm2 UV) was 0.1411 and 0.1324, the “WST-1 reading (source data of fractional survival)” value (HCT116 cells; 2.00E-07 M, no UV) was 0.3331 and 0.2744 and the “WST-1 reading (source data of fractional survival)” value (HCT116 cells; 2.50E-08 M, 5mJ/cm2 UV) was 0.4834 and 0.4002. For the same compound, the “WST-1 reading (source data of fractional survival)” value (HCT116 cells; 2.50E-08 M, 125 mJ/cm2 UV) was 0.1513 and 0.1801, the “WST-1 reading (source data of fractional survival)” value (HCT116 cells; 2.50E-08 M, no UV) was 2.611 and 2.0841 and the “WST-1 reading (source data of fractional survival)” value (HCT116 cells; 3.13E-09 M, 5mJ/cm2 UV) was 2.2833 and 2.9624. The “WST-1 reading (source data of fractional survival)” value (HCT116 cells; 3.13E-09 M, 125 mJ/cm2 UV) was 0.7443 and 0.527, the “WST-1 reading (source data of fractional survival)” value (HCT116 cells; 3.13E-09 M, no UV) was 3.0831 and 3.1401 and the “WST-1 reading (source data of fractional survival)” value (HCT116 cells; 3.91E-10 M, 5mJ/cm2 UV) was 3.2465 and 3.2794. For the same compound, the “WST-1 reading (source data of fractional survival)” value (HCT116 cells; 3.91E-10 M, 125 mJ/cm2 UV) was 2.6106 and 3.2813, the “WST-1 reading (source data of fractional survival)” value (HCT116 cells; 3.91E-10 M, no UV) was 3.2563 and 3.2975 and the “WST-1 reading (source data of fractional survival)” value (HCT116 cells; 5.00E-08 M, 5mJ/cm2 UV) was 0.1995 and 0.2071. For the same compound, the “WST-1 reading (source data of fractional survival)” value (HCT116 cells; 5.00E-08 M, 125 mJ/cm2 UV) was 0.1444 and 0.1401, the “WST-1 reading (source data of fractional survival)” value (HCT116 cells; 5.00E-08 M, no UV) was 0.8754 and 0.871 and the “WST-1 reading (source data of fractional survival)” value (HCT116 cells; 6.25E-09 M, 5mJ/cm2 UV) was 2.1762 and 2.4422. The “WST-1 reading (source data of fractional survival)” value (HCT116 cells; 6.25E-09 M, 125 mJ/cm2 UV) was 0.3527 and 0.3295, the “WST-1 reading (source data of fractional survival)” value (HCT116 cells; 6.25E-09 M, no UV) was 2.9424 and 3.2905 and the “WST-1 reading (source data of fractional survival)” value (HCT116 cells; 7.81E-10 M, 5mJ/cm2 UV) was 3.2172 and 3.1228. For the same compound, the “WST-1 reading (source data of fractional survival)” value (HCT116 cells; 7.81E-10 M, 125 mJ/cm2 UV) was 2.9376 and 2.9926, the “WST-1 reading (source data of fractional survival)” value (HCT116 cells; 7.81E-10 M, no UV) was 3.2642 and 3.2669 and the “potentiation of UVA-induced cytotoxicity” value (HCT116 cells; UV 5 mJ/cm^2 and 125 mJ/cm^2) was “Strong potentiation”. For the same compound, the synthetic lethality [2] was “synthetically lethal”.
